{"source": "ChEMBL document CHEMBL1126927", "data": [{"target": "Estrogen receptor (Ovis aries) (UniProt P49885+Q9TU15)", "description": "Association constant for estrogen receptor", "values": [{"smiles": "[N-]=[N+]=Nc1ccc(C(=O)c2c(-c3ccc(O)cc3)sc3cc(O)ccc23)cc1", "K ass": "1e+09"}, {"smiles": "O=C(c1ccc(OCCN2CCCC2)cc1)c1c(-c2ccc(O)cc2)sc2cc(O)ccc12", "K ass": "1.3e+09"}, {"smiles": "[N-]=[N+]=Nc1c(F)c(F)c(C(=O)c2c(-c3ccc(O)cc3)sc3cc(O)ccc23)c(F)c1F", "K ass": "1.7e+08"}]}]}
